According to ChEMBL document CHEMBL1201862, “PubChem BioAssay data set” (2004):
Calls of active or inactive are those of the source.

Key:
[1] = viability loss in HEK293T cells – cell-based, cherry-picks, cytotoxicity control for HIV Vif inhibitor project, dose response (AID 652208); format: functional
[2] = biological target: Broad substrate specificity ATP-binding cassette transporter ABCG2 (Homo sapiens, UniProt Q9UNQ0); test: blockers of JC-1 export by ABCG2 – Ig-MXP3 cells, flow cytometry, dose response (AID 1690); format: functional
[3] = biological target: T1, Small ubiquitin-related modifier 1 (Homo sapiens, UniProt P63165); test: SUMO1 protein-protein binding blockers, potency – biochemical, FRET, dose response (AID 624383); format: functional; settings: read-out: IC50_Mean
[4] = biological target: T1, Small ubiquitin-related modifier 1; test: SUMO1 protein interaction blockers, potency – biochemical, fluorescence polarization, uHTS hits, dose response (AID 624382); format: functional; settings: read-out: IC50_Mean
[5] = biological target: Photoreceptor-specific nuclear receptor (Homo sapiens, UniProt Q9Y5X4); format: functional, cell-based;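 further: CHO-S cells with Gal4-NCOR and VP16-NR2E3 two-hybrid luciferase reporter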
[6] = biological target: Beta-2 adrenergic receptor (Homo sapiens, UniProt P07550); test: ADRB2 activation measured by internalization – cell-based, FAP fluorogen, flow cytometry, cherry pick 1, dose response (AID 588763); format: functional
[7] = Fluorescence-based cell-based high throughput dose response assay for inhibitors of the interaction of nucleotide-binding oligomerization domain containing 2 (NOD2) and the receptor-interacting serine-threonine kinase 2 (RIPK2).; format: functional; settings: Homo sapiens
[8] = biological target: T2, Apoptotic protease-activating factor 1 (Homo sapiens, UniProt O14727); test: SAR analysis of small molecule Activators of Apaf-1 in a Fluorescent assay.; format: functional; settings: read-out: EC50_Mean;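 further: caspase-3 cleavage of fluorogenic Rh110 DEVD substrate downstream of apoptosome activation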
T2 sequence (O14727 whole entry): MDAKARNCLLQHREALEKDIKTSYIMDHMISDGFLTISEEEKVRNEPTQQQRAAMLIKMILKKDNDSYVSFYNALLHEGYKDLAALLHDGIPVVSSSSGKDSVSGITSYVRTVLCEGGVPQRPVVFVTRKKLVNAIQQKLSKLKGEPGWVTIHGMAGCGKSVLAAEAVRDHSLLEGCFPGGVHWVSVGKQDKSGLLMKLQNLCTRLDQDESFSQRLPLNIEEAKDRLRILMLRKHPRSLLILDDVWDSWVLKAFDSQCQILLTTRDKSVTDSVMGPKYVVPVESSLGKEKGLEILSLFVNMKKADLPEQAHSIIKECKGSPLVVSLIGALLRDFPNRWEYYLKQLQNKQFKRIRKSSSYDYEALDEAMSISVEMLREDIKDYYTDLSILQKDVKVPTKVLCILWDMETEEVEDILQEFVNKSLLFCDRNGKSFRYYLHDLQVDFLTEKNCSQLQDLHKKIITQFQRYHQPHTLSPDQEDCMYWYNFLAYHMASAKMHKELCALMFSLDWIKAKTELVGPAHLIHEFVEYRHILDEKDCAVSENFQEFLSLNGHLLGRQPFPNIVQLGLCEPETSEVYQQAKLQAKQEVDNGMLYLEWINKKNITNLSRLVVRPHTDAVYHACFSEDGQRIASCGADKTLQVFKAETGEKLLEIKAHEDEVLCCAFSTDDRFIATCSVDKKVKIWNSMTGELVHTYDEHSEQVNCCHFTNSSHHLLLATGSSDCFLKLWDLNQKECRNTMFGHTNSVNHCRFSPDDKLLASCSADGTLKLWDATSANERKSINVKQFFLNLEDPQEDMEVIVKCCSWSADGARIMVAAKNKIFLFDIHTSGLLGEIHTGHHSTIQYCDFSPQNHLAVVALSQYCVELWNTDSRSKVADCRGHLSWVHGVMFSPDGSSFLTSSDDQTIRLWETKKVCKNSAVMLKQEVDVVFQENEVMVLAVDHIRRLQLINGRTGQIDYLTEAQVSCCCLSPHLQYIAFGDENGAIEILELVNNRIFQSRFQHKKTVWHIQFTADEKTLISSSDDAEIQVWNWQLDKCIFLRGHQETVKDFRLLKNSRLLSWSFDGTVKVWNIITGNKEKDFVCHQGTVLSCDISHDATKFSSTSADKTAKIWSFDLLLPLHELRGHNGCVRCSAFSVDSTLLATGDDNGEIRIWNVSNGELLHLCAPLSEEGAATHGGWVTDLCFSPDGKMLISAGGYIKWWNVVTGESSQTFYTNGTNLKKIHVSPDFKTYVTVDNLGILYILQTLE

[9] = biological target: DNA repair and recombination protein RAD54-like (Homo sapiens, UniProt Q92698); test: RAD54 Holliday junction migration blockers – biochemical, fluorescence, cherry-picked samples, dose series, confirmation (AID 651657); format: functional
[10] = biological target: T3, DNA repair protein RAD52 homolog (Homo sapiens, UniProt P43351); format: functional, biochemical
T3 sequence (P43351 whole entry): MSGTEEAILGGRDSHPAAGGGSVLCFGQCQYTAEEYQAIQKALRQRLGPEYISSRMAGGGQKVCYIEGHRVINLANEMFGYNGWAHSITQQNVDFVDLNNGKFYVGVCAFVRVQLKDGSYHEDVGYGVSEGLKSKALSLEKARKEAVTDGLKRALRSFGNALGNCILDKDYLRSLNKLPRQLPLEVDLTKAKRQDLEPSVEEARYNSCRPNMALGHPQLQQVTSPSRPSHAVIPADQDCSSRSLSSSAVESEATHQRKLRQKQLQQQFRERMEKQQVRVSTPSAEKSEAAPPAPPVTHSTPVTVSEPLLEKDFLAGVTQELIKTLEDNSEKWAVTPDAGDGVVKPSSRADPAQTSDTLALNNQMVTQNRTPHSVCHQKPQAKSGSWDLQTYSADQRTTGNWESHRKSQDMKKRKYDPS

T1 sequence (P63165 whole entry): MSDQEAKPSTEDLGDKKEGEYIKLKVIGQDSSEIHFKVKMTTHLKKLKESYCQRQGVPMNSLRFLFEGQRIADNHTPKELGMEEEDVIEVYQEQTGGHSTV
Chain of DNA repair and recombination protein RAD54-like (Q92698 whole entry): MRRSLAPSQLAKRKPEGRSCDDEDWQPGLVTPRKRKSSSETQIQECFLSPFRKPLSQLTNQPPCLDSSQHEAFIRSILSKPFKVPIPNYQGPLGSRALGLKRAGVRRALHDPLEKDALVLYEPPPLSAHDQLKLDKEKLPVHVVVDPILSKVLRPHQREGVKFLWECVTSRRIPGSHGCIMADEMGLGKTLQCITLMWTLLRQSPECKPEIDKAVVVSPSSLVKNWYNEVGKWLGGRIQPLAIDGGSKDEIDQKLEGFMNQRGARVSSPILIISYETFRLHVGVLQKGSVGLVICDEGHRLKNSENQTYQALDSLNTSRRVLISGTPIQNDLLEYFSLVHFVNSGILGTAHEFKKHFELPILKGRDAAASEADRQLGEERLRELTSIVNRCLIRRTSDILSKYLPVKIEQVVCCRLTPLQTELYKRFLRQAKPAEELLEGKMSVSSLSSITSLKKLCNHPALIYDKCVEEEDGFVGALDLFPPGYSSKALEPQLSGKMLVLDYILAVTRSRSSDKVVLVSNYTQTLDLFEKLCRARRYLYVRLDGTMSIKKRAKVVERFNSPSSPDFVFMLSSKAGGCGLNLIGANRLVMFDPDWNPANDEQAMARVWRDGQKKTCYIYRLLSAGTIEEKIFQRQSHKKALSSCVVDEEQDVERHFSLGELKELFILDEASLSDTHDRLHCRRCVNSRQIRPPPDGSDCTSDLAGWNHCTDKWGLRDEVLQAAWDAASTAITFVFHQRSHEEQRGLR
Chain of Beta-2 adrenergic receptor (P07550 whole entry, the tested form may be a part): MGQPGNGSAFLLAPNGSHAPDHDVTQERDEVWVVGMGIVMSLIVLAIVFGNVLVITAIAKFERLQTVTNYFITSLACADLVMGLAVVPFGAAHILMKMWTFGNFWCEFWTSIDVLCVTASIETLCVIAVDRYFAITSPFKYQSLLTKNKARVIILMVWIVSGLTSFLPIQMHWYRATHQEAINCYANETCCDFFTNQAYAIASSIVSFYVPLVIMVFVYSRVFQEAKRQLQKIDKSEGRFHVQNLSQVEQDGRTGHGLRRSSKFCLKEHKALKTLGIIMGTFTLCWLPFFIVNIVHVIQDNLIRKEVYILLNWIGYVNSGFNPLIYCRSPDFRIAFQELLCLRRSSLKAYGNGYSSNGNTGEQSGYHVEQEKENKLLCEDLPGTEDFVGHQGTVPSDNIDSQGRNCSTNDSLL
Chain of Broad substrate specificity ATP-binding cassette transporter ABCG2 (Q9UNQ0 whole entry): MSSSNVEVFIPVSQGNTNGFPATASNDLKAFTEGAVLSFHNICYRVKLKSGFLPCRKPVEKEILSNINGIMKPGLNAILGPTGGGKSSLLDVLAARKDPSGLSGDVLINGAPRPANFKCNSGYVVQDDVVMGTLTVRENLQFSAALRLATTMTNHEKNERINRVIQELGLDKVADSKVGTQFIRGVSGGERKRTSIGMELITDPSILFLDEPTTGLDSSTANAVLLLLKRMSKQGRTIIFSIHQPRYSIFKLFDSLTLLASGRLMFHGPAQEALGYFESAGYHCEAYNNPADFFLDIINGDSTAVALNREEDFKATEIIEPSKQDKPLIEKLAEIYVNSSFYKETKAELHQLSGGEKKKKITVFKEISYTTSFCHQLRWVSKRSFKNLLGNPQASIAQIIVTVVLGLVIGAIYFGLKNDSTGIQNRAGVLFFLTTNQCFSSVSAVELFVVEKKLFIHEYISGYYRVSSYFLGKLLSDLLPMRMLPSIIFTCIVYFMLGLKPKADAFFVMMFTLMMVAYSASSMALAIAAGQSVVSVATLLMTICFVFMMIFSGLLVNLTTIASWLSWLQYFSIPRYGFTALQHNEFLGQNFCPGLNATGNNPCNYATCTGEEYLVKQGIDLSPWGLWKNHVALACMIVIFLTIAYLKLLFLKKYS
Chain of Photoreceptor-specific nuclear receptor (Q9Y5X4 whole entry, the tested form may be a part): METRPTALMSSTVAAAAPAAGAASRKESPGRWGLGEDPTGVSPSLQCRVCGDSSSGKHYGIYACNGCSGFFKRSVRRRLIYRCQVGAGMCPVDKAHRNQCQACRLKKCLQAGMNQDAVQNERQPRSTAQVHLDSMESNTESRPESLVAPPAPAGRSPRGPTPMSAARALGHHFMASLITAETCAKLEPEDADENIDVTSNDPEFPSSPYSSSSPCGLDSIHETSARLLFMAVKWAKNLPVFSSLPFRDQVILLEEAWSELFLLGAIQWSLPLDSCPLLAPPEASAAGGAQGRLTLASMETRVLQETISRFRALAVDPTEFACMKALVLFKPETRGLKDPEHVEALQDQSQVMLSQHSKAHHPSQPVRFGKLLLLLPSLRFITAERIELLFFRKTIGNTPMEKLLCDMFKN

NC(c1csc(Nc2ccc(C(=O)c3ccccc3)cc2)n1)C1CCCCC1 (stereo not given)
AC50 [1]: 26.6 µM (active)

COC(=O)c1ccc(C(C(=O)NC2CCCCC2)N(Cc2ccccc2)C(=O)Cc2cccs2)cc1 (stereo not given)
EC50 [2]: 4.6 µM (active)

O=C(NCc1ccccn1)c1ccc2c(=O)n3nc(Nc4ccccc4)sc3nc2c1
IC50 [3]: 8.94 µM (active)
IC50 [4]: > 66.6 µM (inactive)

O=C(C1CC1)N1CCc2cc(Br)cc(S(=O)(=O)N3CCN(c4ccccn4)CC3)c21
IC50 [5]: 1.06 µM (active)

N#Cc1cccc(NC(=O)COC(=O)c2ccccc2C(=O)c2ccc(Cl)c([N+](=O)[O-])c2)c1
EC50 [6]: 5.27 µM (inactive)
IC50 [7]: 1.99 µM (active)

CO[C@@H]1CS(=O)(=O)C2C(c3ccc(F)cc3)=NOC21 (stereo not given in full)
EC50 [8]: > 100 µM (inactive)

CCN(CC)CCN=C(S)Nc1ccc2nc(N3CCN(C)CC3)cc(C)c2c1
AC50 [9]: 17.2 µM (active)
AC50 [10]: 5.01 µM (active)
